Test results published in the supplement of paper PMC10307832.

Assays:
Assay in all cases: relative viability (nuclei count vs DMSO), 5 days (fraction); higher = more cells survive
[1] = compound: CC1CC(=O)N(C2=CN=C(N=C2N1C3CCCC3)NC4=C(C=C(C=C4)C(=O)NC5CCN(CC5)C)OC)C [NPK76-II-72-1] + CS(=O)(=O)CCNCc1ccc(-c2ccc3ncnc(Nc4ccc(OCc5cccc(F)c5)c(Cl)c4)c3c2)o1 [Lapatinib] (partner 2 µM)
In short: (§1)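 Nuclei were stained with Hoechst during a one-step fixation (final 0.05% Triton X-100, 1% formaldehyde, 1 ug/ml Hoechst) carried out 5 days after dosing, then counted on 4× images. The cells, lung cancer lines in 1536-well plates, had been dosed by pin tool the day after seeding with one drug alone or a fixed anchor-drug dose plus five library-drug doses (not always all listed) in √10 steps. Relative viability is the nuclei count in treated wells divided by that in vehicle wells, and each value is the median of duplicate plates.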

[2] = compound: CC1CC(=O)N(C2=CN=C(N=C2N1C3CCCC3)NC4=C(C=C(C=C4)C(=O)NC5CCN(CC5)C)OC)C [NPK76-II-72-1] + O=C(c1cc(Cc2n[nH]c(=O)c3ccccc23)ccc1F)N1CCN(C(=O)C2CC2)CC1 [Olaparib] (partner 8 µM)
In short: as §1

[3] = compound: CC[C@@H]1C(=O)N(C)c2cnc(Nc3ccc(C(=O)NC4CCN(C)CC4)cc3OC)nc2N1C1CCCC1 [BI-2536] + Cc1cc(Nc2cc(N3CCN(C)CC3)nc(Sc3ccc(NC(=O)C4CC4)cc3)n2)n[nH]1 [Tozasertib] (partner 0.1 µM)
In short: as §1

[4] = compound: CC[C@@H]1C(=O)N(C)c2cnc(Nc3ccc(C(=O)NC4CCN(C)CC4)cc3OC)nc2N1C1CCCC1 [BI-2536] + Nc1ncn([C@H]2C[C@H](O)[C@@H](CO)O2)c(=O)n1 [Decitabine] (partner 2 µM)
In short: as §1

| Cell Line | relative viability ([1]; first compound 0.01 µM) | relative viability ([1]; first compound 0.03162 µM) | relative viability ([1]; first compound 0.1 µM) | relative viability ([1]; first compound 0.3162 µM) | relative viability ([1]; first compound 1 µM) | relative viability ([2]; first compound 0.01 µM) | relative viability ([2]; first compound 0.03162 µM) | relative viability ([2]; first compound 0.1 µM) | relative viability ([2]; first compound 1 µM) | relative viability ([3]; first compound 0.01 µM) | relative viability ([3]; first compound 0.03162 µM) | relative viability ([3]; first compound 0.1 µM) | relative viability ([3]; first compound 0.3162 µM) | relative viability ([3]; first compound 1 µM) | relative viability ([4]; first compound 0.01 µM) | relative viability ([4]; first compound 0.03162 µM) | relative viability ([4]; first compound 0.1 µM) | relative viability ([4]; first compound 0.3162 µM) | relative viability ([4]; first compound 1 µM) | relative viability ([2]; first compound 0.3162 µM) |
| --- | --- | --- | --- | --- | --- | --- | --- | --- | --- | --- | --- | --- | --- | --- | --- | --- | --- | --- | --- | --- |
| HOP-62 | 1.08 | 0.958 | 1.02 | 0.911 | 1.22 | 0.389 | 0.351 | 0.466 | 0.465 | 0.337 | 0.424 | 0.29 | 0.204 | 0.219 | 0.201 | 0.209 | 0.231 | 0.151 | 0.142 |  |
| LC-2-ad | 0.916 | 1.02 | 0.976 | 1.04 | 1.06 | 0.673 | 0.72 | 0.702 | 0.683 | 0.412 | 0.278 | 0.279 | 0.318 | 0.383 | 0.739 | 0.659 | 0.506 | 0.247 | 0.223 | 0.704 |
| LCLC-97TM1 |  | 0.887 | 0.859 | 0.739 | 1.32 | 0.357 | 0.394 | 0.346 | 0.424 | 0.236 | 0.184 | 0.176 | 0.182 | 0.178 | 0.228 | 0.277 | 0.163 | 0.0912 | 0.0986 | 0.249 |
| LK-2 | 0.83 | 0.886 | 0.877 | 0.774 | 1.12 | 0.775 | 0.716 | 0.679 | 0.725 | 0.152 | 0.151 | 0.173 | 0.187 | 0.185 | 0.255 | 0.254 | 0.134 | 0.0869 | 0.137 | 0.565 |
| LOU-NH91 | 0.746 | 0.759 | 0.732 | 0.777 | 0.822 | 0.906 | 0.926 | 0.893 | 0.991 | 0.694 | 0.543 | 0.439 | 0.34 | 0.234 | 0.816 | 0.685 | 0.66 | 0.343 | 0.383 | 0.785 |
| LU99A | 0.965 | 0.98 | 1.02 | 0.857 | 1.04 | 0.259 | 0.244 | 0.297 | 0.285 | 0.272 | 0.235 | 0.248 | 0.281 | 0.227 | 0.796 | 1.02 | 0.717 | 0.198 | 0.25 | 0.253 |
| LXF-289 | 0.881 | 0.91 | 0.891 | 0.934 | 0.889 | 0.966 | 1.07 | 1.05 | 1.07 | 0.216 | 0.214 | 0.206 | 0.0925 | 0.11 | 0.382 | 0.376 | 0.363 | 0.0762 | 0.1 | 1.04 |
